From a melting point compilation (Tetko et al.; mined from patent text by program, amines drawn as free bases though some values may be those of a salt)

Row | SMILES | melting point [°C]
1 | COc1ccc(C)cc1NC(=O)Nc1ccc(N2CCN(C(=O)Nc3ccc(OCCO)cc3C(F)(F)F)CC2)nc1 | 198 to 200
2 | N#CC1Nc2ccccc2N2CCc3cccc1c32 (stereo unspecified) | 185 to 186
3 | CC(C)CN(C)c1cc(F)cc(C(=O)Nc2ccc(OCCN3CCOCC3)c3ccccc23)c1 | 126 to 128
4 | CC(C)C(CN1CCCC1)C(=O)c1cc(-c2ccccc2)no1 (stereo unspecified) | 77 to 79
5 | CC[C@H]1COC(=O)N1c1nc(-c2ccc(C#N)cc2)c(F)s1 | 157 to 159
6 | COc1ccc(CNc2ccc(C#N)cc2)cc1OC | 150
7 | C#CCOC(=O)c1ccc(Br)s1 | 65 to 68
8 | CC(OC(=O)c1ccccc1)C(N)=O (stereo unspecified) | 116 to 117
9 | CCc1nnc2cc(C)c(-c3ccc(C(N)=O)cc3)nn12 | 210 to 213
10 | CCN1c2ncc(C=O)cc2C(=O)N(C)c2ccc(F)nc21 | 133 to 134
11 | COc1cc(N)c(Cl)cc1C(=O)NCC1CCN(CCCOCc2ccccc2)CC1 | 82 to 83
12 | Cc1nc2c(CCCc3ccccc3)cccn2c1CC#N | 66.5 to 68
13 | COc1cc(C(F)(F)F)cc(OC)c1C(=O)CCl | 120 to 122
14 | NS(=O)(=O)c1cc(NC(=O)c2cnn3c(C(F)(F)F)cc(-c4ccc(C(F)(F)F)cc4)nc23)c(Cl)s1 | 275
15 | CC[C@H]1COC(=O)N1c1nc(-c2ccc(Br)cc2)c(Cl)s1 | 137 to 139
16 | Cc1ccc(C2CCN(C(=O)CCC(=O)c3ccc4c(c3)CNCC4)CC2)cc1 | 119 to 120
17 | CN1CCC[C@H]1Cn1nc(-c2c(-c3ccccc3)nn3ccccc23)ccc1=O | 114 to 117
18 | BrC1=Cc2ccccc2Nc2ccccc21 | 65 to 69
19 | CC(C)(C)OC(=O)NCc1cccc(C(=O)O)c1 | 127 to 128
20 | O[C@@H]1c2cc3c(cc2CC[C@H]1NCCc1ccccc1)CCO3 (relative stereo) | 144 to 148
21 | CCc1ccc(C(=O)Cc2ccc(Br)cc2)cc1 | 146
22 | COc1ccc2c(c1)c(CCC(=O)O)cn2S(=O)(=O)c1ccc(C)cc1 | 172 to 174
23 | CCOC(=O)Nc1ccc2nc3ccccc3c(-c3cc(C)ccc3C)c2c1 | 200 to 202
24 | Cc1cc(NC(=O)C(=O)N(C)C)cc(C)c1S(=O)(=O)C[N+](=O)[O-] | 171 to 172

Row | SMILES | melting point [°C]
25 | CC(=NNc1ccc(C(F)(F)F)cc1)C(=O)O | 190 to 191
26 | C=C(C)[C@@H]1CC[C@]2(C(=O)N[C@H]3C[C@@H](C(=O)N4CCCC4)C3(C)C)CC[C@]3(C)[C@H](CC[C@@H]4[C@@]5(C)CC[C@H](OC(=O)CC(C)(C)C(=O)O)C(C)(C)[C@@H]5CC[C@]43C)[C@@H]12 | 110 to 114
27 | c1ccc(CN2CCN(c3nc4cccc5c4n3CCC5)CC2)cc1 | 157 to 158
28 | CCCOc1ccc(S(=O)(=O)N2CCN(CC)CC2)cc1-c1nc2cc3ncn(Cc4cccc(OC)c4)c3cc2c(=O)[nH]1 | 117 to 118
29 | CCOC(=O)C1=C(C)NC(N=CCN(C)C)=C(C(=O)OCC)C1c1cccc([N+](=O)[O-])c1 (stereo unspecified) | 172
30 | COc1ccc(-c2ocnc2-c2cc(OC)c(N)c(OC)c2)cc1O | 126 to 130
31 | Nc1nc2c(s1)CCN(CC=Cc1cccc(O)c1)CC2 | 85 to 95
32 | O=C1CCCc2cc(=O)[nH]cc21 | 246 to 248
33 | CCCCCCCCCCCCCCCCCCOc1ccc(C(=O)C(=O)N(CC(=O)OCC)CC(=O)OCC)cc1 | 63 to 64
34 | CCN(CC)c1ccc(-n2cc(-c3ccc(C4=C(C#N)C(=C(C#N)C#N)OC4(C)C)cc3)nn2)cc1 | 265
35 | COC(=O)c1cc(NC(=O)C(N)c2ccc3c(c2)C(C)(C)CCC3(C)C)cn1C (stereo unspecified) | 122 to 124
36 | Cc1cc(C(N)=O)ccc1N=C1SC[C@H](CC(C)C)N1CC(C)C | 130 to 131
37 | Cc1cc(F)ccc1-c1nc(NC(C)(CO)CO)nc2c1ccc(=O)n2-c1ccccc1F | 160 to 162
38 | N#CC1CN1C(=O)NS(=O)(=O)c1ccccc1 (stereo unspecified) | 103 to 108
39 | Clc1cc(Cl)c2oc(-c3ccc(C=Cc4ccc(-c5ccccc5)cc4)cc3)cc2c1 | 258 to 260
40 | CN1Cc2c(-c3nc(CCl)cs3)ncn2-c2ccccc2C1=O | 248 to 249
41 | C=CCOc1cccc(-n2cnc(C(=O)OCC)c2)c1 | 53 to 55
42 | NCCc1ccc(C(=O)CCC(=O)O)cc1 | 234 to 235
43 | Cc1nn(-c2ccccn2)c2[nH]c3ccc(N(C)C)cc3c(=O)c12 | 171 to 173
44 | COc1nccc2c1COC2=O | 90
45 | O=C(Oc1ccccc1)c1ncn2c1CN(C(=O)N1CCCC1)c1ccccc1-2 | 196 to 199
46 | NCC(CCO)c1ccc(Cl)c(Cl)c1 (single isomer, unassigned; (+)) | 80 to 81
47 | CCOC(=O)c1nc(N)sc1-c1nc2ccc(Cl)cn2c1C | 217 to 219
48 | Cc1cc2c(cc1C1=NNC(=O)CC1C)N(C)C(=O)C(C)O2 (stereo unspecified) | 190 to 192

Row | SMILES | melting point [°C]
49 | CC(=O)c1oc2ccc(C)cc2c1C | 66.3 to 66.5
50 | COc1ccsc1C1OC(=O)NC1=O (stereo unspecified) | 156 to 158
51 | COc1cc([N+](=O)[O-])c2nc(C(F)(F)F)cc(O)c2c1 | 138 to 140
52 | C[C@]12CCC(=O)N[C@@H]1CCc1cc(Sc3cccc(F)c3)ccc12 | 154 to 156
53 | Cc1sc(N)nc1-c1ccc(CCN2CCN(c3cccc4ccccc34)CC2)cc1 | 160 to 165
54 | COc1ccc(-c2ccc(Cl)cc2)cc1OC1CCCC1 | 88 to 91
55 | CCOCc1nc2c(N)nc3ccccc3c2n1CC1(NC(C)=O)CCCCC1 | 178 to 180
56 | CS(=O)(=O)c1ccc(-n2nc(C(F)F)cc2-c2nc3ccc(F)cc3s2)cc1 | 204 to 206
57 | CC1(C)CCC(C)(C)c2cc(-c3cc(CO)cc(-c4ccc(C(=O)O)cc4)c3)ccc21 | 213
58 | CCOC(=O)c1c(CCl)nc2ccc(C)cc2c1-c1ccc(OC)c(OC)c1 | 125 to 126
59 | CON=C(OCC(=O)OC)C(Cl)=Cc1cc(-n2ncc(C(F)(F)F)c(C)c2=O)c(F)cc1Cl | 75 to 76
60 | COc1cccc2[nH]cc(C3CN4CCC3CC4)c12 (stereo unspecified) | 193 to 195
61 | Cc1ccc2ccccc2c1C1OC(=O)NC1=O (stereo unspecified) | 147 to 150
62 | O=C(CCCc1c[nH]c2ccccc12)NCc1ccccc1 | 132 to 133
63 | COc1cccc2c(CCCCN(C3CCC3)C3COc4c(F)ccc(C(N)=O)c4C3)coc12 (stereo unspecified) | 122 to 127
64 | COC(=O)C(C(=O)OC)c1cc(F)cc2c1C(=O)c1cc3ccccc3cc1C2=O | 225 to 230
65 | CC(c1ccccc1)c1n[nH]c2c1c(=O)n(-c1cccc(C(F)(F)F)c1)c1ncccc21 (stereo unspecified) | 235 to 237
66 | N#Cc1cc([N+](=O)[O-])ccc1NCCCn1ccnc1 | 177
67 | CCC(CC)Oc1cc(C)nc2c1CCC(=O)N2c1c(C)cc(C)cc1C | 138 to 140
68 | Cc1ccc2c3[nH]nc(Cc4ccccc4)c3c(=O)n(-c3ccccc3)c2n1 | 300 to 302
69 | Cc1c(Br)cc(C(C)(C)C)c(O)c1C(=O)O | 54 to 58
70 | COc1cc(C(=O)N2CCCCc3cc(Cl)ccc32)ccc1NC(=O)N(C)C | 230 to 232
71 | CCC1C(C)=NN=C(c2ccc(O)c(O)c2)c2cc(O)c(O)cc21 (stereo unspecified) | 250 to 251
